Results taken from US20260098026A1, “M4 ACTIVATORS/MODULATORS AND USES THEREOF” (Cerevel Therapeutics, LLC, priority 2022, published 2026).

Assays:
[1] = target: T1, M3 muscarinic acetylcholine receptor (mAChR) (Homo sapiens, UniProt P20309); experiment: FLIPR calcium assay (Fluo 8), M3-overexpressing CHO-K1 cells; type: cell-based; conditions: FLIPR
T1 construct: expressed in transfected cells; host or cells: CHO-K1
Outline: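 CHO-K1 cells overexpressing each human receptor seeded at 15,000 per well, grown overnight at 37° C., 5% CO2, then loaded with Fluo-8 for 30 min. Compounds in HBSS added and calcium response read on FLIPR; EC50 and Emax calculated per subtype.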

M4 mAChR = target: T2, M4 mAChR (Homo sapiens, UniProt P08173); experiment: cAMP TR-FRET assay with forskolin, M4-overexpressing CHO-K1 cells; type: cell-based; conditions: cAMP assay
T2 construct: expressed in transfected cells; host or cells: CHO-K1
T2 sequence (P08173 1-479): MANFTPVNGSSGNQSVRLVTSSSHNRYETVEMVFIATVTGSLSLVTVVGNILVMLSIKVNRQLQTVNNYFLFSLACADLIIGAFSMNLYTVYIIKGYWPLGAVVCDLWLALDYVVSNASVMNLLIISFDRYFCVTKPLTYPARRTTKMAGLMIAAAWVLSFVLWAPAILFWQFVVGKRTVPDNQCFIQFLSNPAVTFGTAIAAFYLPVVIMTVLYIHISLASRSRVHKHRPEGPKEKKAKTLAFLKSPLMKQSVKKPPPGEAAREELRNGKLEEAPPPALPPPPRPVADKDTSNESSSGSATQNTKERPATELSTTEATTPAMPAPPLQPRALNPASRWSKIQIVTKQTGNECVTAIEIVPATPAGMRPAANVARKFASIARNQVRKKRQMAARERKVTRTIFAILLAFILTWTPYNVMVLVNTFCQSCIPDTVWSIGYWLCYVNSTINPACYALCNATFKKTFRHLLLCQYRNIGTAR
Outline: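 CHO-K1 cells overexpressing the receptor were stimulated with forskolin to raise cAMP, so that Gi-mediated agonist decreases could be measured. cAMP was quantified by TR-FRET competition between cellular cAMP and labelled donor for anti-cAMP antibody, giving potency and efficacy.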

T1 sequence (P20309 whole entry): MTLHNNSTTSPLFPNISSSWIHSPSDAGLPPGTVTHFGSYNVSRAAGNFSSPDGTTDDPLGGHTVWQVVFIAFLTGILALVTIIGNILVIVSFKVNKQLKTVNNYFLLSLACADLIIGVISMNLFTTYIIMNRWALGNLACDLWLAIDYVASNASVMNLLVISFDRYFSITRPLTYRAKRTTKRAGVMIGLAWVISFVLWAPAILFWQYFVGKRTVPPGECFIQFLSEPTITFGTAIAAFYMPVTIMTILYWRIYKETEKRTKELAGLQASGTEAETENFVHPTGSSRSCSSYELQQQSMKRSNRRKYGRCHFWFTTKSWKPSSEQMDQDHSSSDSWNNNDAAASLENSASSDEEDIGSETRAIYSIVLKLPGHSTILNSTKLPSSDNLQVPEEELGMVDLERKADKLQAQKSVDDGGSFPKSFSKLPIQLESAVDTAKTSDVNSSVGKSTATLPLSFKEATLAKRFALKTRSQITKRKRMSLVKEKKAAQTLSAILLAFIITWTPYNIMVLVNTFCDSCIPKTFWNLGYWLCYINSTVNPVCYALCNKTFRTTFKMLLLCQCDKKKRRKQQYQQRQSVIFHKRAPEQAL

| EC50 [1] [µM] | Emax (M4 mAChR) [%] | SMILES |
| --- | --- | --- |
| > 10 | 80 to 100 | CCOC(=O)N1CC2(CC[C@@H](N3CCN(c4cc(F)cnc4-c4ccc(F)cn4)CC3)C2)C1 [Compound A218] |
| > 10 | 80 to 100 | CCOC(=O)N1CC2(CC[C@@H](N3CCN(c4cc(Cl)cnc4-c4cnccn4)CC3)C2)C1 [Compound A221] |
| > 10 | 80 to 100 | CCOC(=O)N1CC2(CC[C@@H](N3CCN(c4cc(F)cnc4-c4cnc(OC)cn4)CC3)C2)C1 [Compound A226] |
| > 10 | 80 to 100 | CCOC(=O)N1CC2(CC[C@@H](N3CCN(c4cc(F)cnc4-c4ccccn4)CC3)C2)C1 [Compound A227] |
| > 10 | 80 to 100 | CCOC(=O)N1CC2(CC[C@@H](N3CCN(c4cc(F)cnc4-c4ccc(C)cn4)CC3)C2)C1 [Compound A228] |
| > 10 | 80 to 100 | CCOC(=O)N1CC2(CC[C@@H](N3CCN(c4cc(F)cnc4OC4CCOCC4)CC3)C2)C1 [Compound A229] |
| > 10 | 80 to 100 | CCOC(=O)N1CC2(CC[C@@H](N3CCN(c4cc(F)cnc4-c4cn(C)nn4)CC3)C2)C1 [Compound A230] |
| > 10 | 50 to 79.9 | CCOC(=O)N1CC2(CC[C@@H](N3CCN(c4cc(F)cnc4-c4cnc(C)cn4)CC3)C2)C1 [Compound A231] |
| > 10 | 80 to 100 | CCOC(=O)N1CC2(CC[C@@H](N3CCN(c4cc(F)cnc4OC4CC5(COC5)C4)CC3)C2)C1 [Compound A233] |
| > 10 | 80 to 100 | CCOC(=O)N1CC2(CC[C@@H](N3CCN(c4cc(F)cnc4-c4ccc(C#N)cn4)CC3)C2)C1 [Compound A234] |
| > 10 | 80 to 100 | CCOC(=O)N1CC2(CC[C@@H](N3CCN(c4cc(F)cnc4-c4cnc(OC(F)F)cn4)CC3)C2)C1 [Compound A235] |
| > 10 | 50 to 79.9 | CCOC(=O)N1CC2(CC[C@@H](N3CCN(c4cc(F)cnc4-c4ccc(C(F)(F)F)nn4)CC3)C2)C1 [Compound A243] |
| > 10 | 80 to 100 | CCOC(=O)N1CC2(CC[C@@H](N3CCN(c4cccnc4-c4cnccn4)CC3)C2)C1 [Compound A244] |
| > 10 | 80 to 100 | CCOC(=O)N1CC2(CC[C@@H](N3CCN(c4cc(Cl)cnc4-c4cccnn4)CC3)C2)C1 [Compound A245] |
| > 10 | 80 to 100 | CCOC(=O)N1CC2(CC[C@@H](N3CCN(c4cc(F)cnc4-n4cc(C)nn4)CC3)C2)C1 [Compound A246] |
| > 10 | 80 to 100 | CCOC(=O)N1CC2(CC[C@@H](N3CCN(c4cc(Cl)cnc4-n4cc(C)nn4)CC3)C2)C1 [Compound A247] |
| > 10 | 80 to 100 | CCOC(=O)N1CC2(CC[C@@H](N3CCN(c4cc(Cl)cnc4-c4nncs4)CC3)C2)C1 [Compound A249] |
| > 10 | 80 to 100 | CCOC(=O)N1CC2(CC[C@@H](N3CCN(c4cc(F)cnc4-c4cnc(C(F)(F)F)cn4)CC3)C2)C1 [Compound A250] |
| > 10 | 80 to 100 | CCOC(=O)N1CC2(CC[C@@H](N3CCN(c4cc(Cl)cnc4-c4ccc(C)nn4)CC3)C2)C1 [Compound A251] |
| > 10 | 80 to 100 | CCOC(=O)N1CC2(CC[C@@H](N3CCN(c4cc(Cl)cnc4-c4ccc(F)cn4)CC3)C2)C1 [Compound A252] |
| > 10 | 80 to 100 | CCOC(=O)N1CC2(CC[C@@H](N3CCN(c4cc(F)cnc4-c4cnc(C(F)F)cn4)CC3)C2)C1 [Compound A253] |
| > 10 | 80 to 100 | CCOC(=O)N1CC2(CC[C@@H](N3CCN(c4cc(C)cnc4-c4cnccn4)CC3)C2)C1 [Compound A255] |
| > 10 | 80 to 100 | CCOC(=O)N1CC2(CC[C@@H](N3CCN(c4cc(Cl)cnc4-c4cn(C)nn4)CC3)C2)C1 [Compound A256] |
| > 10 | 50 to 79.9 | CCOC(=O)N1CC2(CC[C@@H](N3CCN(c4cc(Cl)cnc4-c4cnn(C(C)C)n4)CC3)C2)C1 [Compound A258] |

Further lines, the compound ahead of its results:

| SMILES | EC50 [1] [µM] | Emax (M4 mAChR) [%] |
| --- | --- | --- |
| CCOC(=O)N1CC2(CC[C@@H](N3CCN(c4cc(F)cnc4-c4cnn(C)c4)CC3)C2)C1 [Compound A190] | > 10 | 80 to 100 |
| CCOC(=O)N1CC2(CC[C@@H](N3CCN(c4cc(F)cnc4-c4cnn(C(C)(C)C)c4)CC3)C2)C1 [Compound A191] | > 10 | 50 to 79.9 |
| CCOC(=O)N1CC2(CC[C@@H](N3CCN(c4cc(F)cnc4-c4ccc5c(c4)CN(C)C5=O)CC3)C2)C1 [Compound A192] | > 10 | 80 to 100 |
| CCOC(=O)N1CC2(CC[C@@H](N3CCN(c4cc(F)cnc4C4=CCOCC4)CC3)C2)C1 [Compound A193] | > 10 | 80 to 100 |
| CCOC(=O)N1CC2(CC[C@@H](N3CCN(c4cc(F)cnc4-c4cnn(C(C)C)c4)CC3)C2)C1 [Compound A195] | > 10 | 50 to 79.9 |
| CCOC(=O)N1CC2(CC[C@@H](N3CCN(c4cc(F)cnc4C4=CCN(C)CC4)CC3)C2)C1 [Compound A197] | > 10 | 80 to 100 |
| CCOC(=O)N1CC2(CC[C@@H](N3CCN(c4cc(F)cnc4-c4ccn(C(F)F)n4)CC3)C2)C1 [Compound A198] | > 10 | 50 to 79.9 |
| [2H]C([2H])([2H])n1ccc(-c2ncc(F)cc2N2CCN([C@@H]3CCC4(C3)CN(C(=O)OCC)C4)CC2)n1 [Compound A199] | > 10 | 19 to 49.9 |
| CCOC(=O)N1CC2(CC[C@@H](N3CCN(c4cc(F)cnc4-c4ccn(C(C)(C)C)n4)CC3)C2)C1 [Compound A200] | > 10 | 19 to 49.9 |
| CCOC(=O)N1CC2(CC[C@@H](N3CCN(c4cc(F)cnc4-c4ccc(=O)[nH]c4C)CC3)C2)C1 [Compound A201] | > 10 | 80 to 100 |
| CCOC(=O)N1CC2(CC[C@@H](N3CCN(c4cc(F)cnc4-c4cc(C)c(=O)n(C)c4)CC3)C2)C1 [Compound A202] | > 10 | 19 to 49.9 |
| CCOC(=O)N1CC2(CC[C@@H](N3CCN(c4cc(F)cnc4-c4cccn(C)c4=O)CC3)C2)C1 [Compound A203] | > 10 | 19 to 49.9 |
| CCOC(=O)N1CC2(CC[C@@H](N3CCN(c4cc(Cl)cnc4-c4cnn(C)c4)CC3)C2)C1 [Compound A204] | > 10 | 80 to 100 |
| CCOC(=O)N1CC2(CC[C@@H](N3CCN(c4cc(F)cnc4-c4cc(C)[nH]c(=O)c4)CC3)C2)C1 [Compound A205] | > 10 | 80 to 100 |
| CCOC(=O)N1CC2(CC[C@@H](N3CCN(c4cc(Cl)cnc4-c4ccc(=O)n(C)c4)CC3)C2)C1 [Compound A207] | > 10 | 80 to 100 |
| CCOC(=O)N1CC2(CC[C@@H](N3CCN(c4cc(Cl)cnc4-c4ccn(C)n4)CC3)C2)C1 [Compound A208] | > 10 | 50 to 79.9 |
| CCOC(=O)N1CC2(CC[C@@H](N3CCN(c4cc(Cl)cnc4-c4ccn(C)c(=O)c4)CC3)C2)C1 [Compound A209] | > 10 | 80 to 100 |
| CCOC(=O)N1CC2(CC[C@@H](N3CCN(c4cccnc4N4CCCCC4)CC3)C2)C1 [Compound A215] | > 10 | 80 to 100 |
| CCOC(=O)N1CC2(CCC(N3CCN(c4cccnc4N4CCC(OC)CC4)CC3)C2)C1 (stereo not shown) [Compound A216] | > 10 | 80 to 100 |
| CCOC(=O)N1CC2(CCC(N3CCN(c4cccnc4N4CCC(C#N)CC4)CC3)C2)C1 (stereo not shown) [Compound A217] | > 10 | 80 to 100 |
